Source: PubChem BioAssay (NCI)
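Values below derive from 48-hour exposures of cells grown in 96-well plates, with endpoints linearly interpolated between the two concentrations bracketing the appropriate inhibition level. GI50 is the concentration that inhibits growth by half. TGI marks complete inhibition of growth.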

How the values were obtained:
Test in all cases: NCI-60 cell line screen, 48 h
[1] = tested on: PC-3 prostate
[2] = tested on: RPMI-8226 leukemia
[3] = tested on: SF-539 CNS
[4] = tested on: HCC-2998 colon
[5] = tested on: M14 melanoma
[6] = tested on: UACC-257 melanoma
[7] = tested on: HCT-116 colon

| Structure (SMILES) | GI50 [1] [µM] | TGI [1] [µM] | GI50 [2] [µM] | TGI [2] [µM] | GI50 [3] [µM] | TGI [3] [µM] | GI50 [4] [µM] | TGI [4] [µM] | GI50 [5] [µM] | TGI [5] [µM] | GI50 [6] [µM] | TGI [6] [µM] | GI50 [7] [µM] | TGI [7] [µM] |
| --- | --- | --- | --- | --- | --- | --- | --- | --- | --- | --- | --- | --- | --- | --- |
| CCCCCCOc1ccc(/C=N/Nc2cc(C)nc3ccc(Br)cc23)cc1 | 1.65 | 3.23 | 1.86 | 4.06 | 1.87 | 3.29 | 2.03 | 3.56 | 1.67 | 3.08 | 1.95 | 3.65 | 0.85 | 2.11 |
| CCOc1ccc(-n2cc(-c3ccc(N(C)C)cc3)[n+]3c2CCCCC3)cc1 | 0.277 | > 100 | 0.0567 | > 24.9 | 2.26 | > 100 | 0.188 | > 100 | 1.46 | 33.8 | 0.12 | 2.44 | 0.267 | > 100 |
| COc1ccc(-c2nn(C(=O)c3cc(OC)c(OC)c(OC)c3)c3cc(N)ccc23)cc1 | < 0.0241 | > 30.3 | < 0.018 | 1.84 | < 0.01 | 1.24 | 0.0349 | 3.79 | < 0.0118 | 19.5 | 5.54 | 39.3 | < 0.01 | 1.45 |
| COc1cc(/C=C/C(=O)c2ccc(SC)cc2)cc(OC)c1OC | 14.2 | 95.3 | 3.9 | > 100 | 11.7 | 27.2 | 18 | 33.2 | 10.5 | 22.4 | 5.45 | 18.1 | 3.3 | 13.7 |
| c1ccc2c(c1)-c1nc3ccccc3cc1C2N1CCOCC1 (stereo not given) | – | > 100 | – | > 100 | – | – | – | – | – | > 100 | – | > 100 | – | > 100 |
| COC(=O)c1cccc(COc2ccc([N+](=O)[O-])cc2Cl)c1 | – | > 100 | – | > 100 | – | > 100 | – | – | – | > 100 | – | > 100 | – | > 100 |
| COc1ccc2nc3c(cc2c1)C(=O)CC(C(F)(F)F)C3 (stereo not given) | 1.08 | > 100 | 13.7 | > 100 | 1.74 | 5.64 | 4.14 | 99.1 | 0.238 | > 100 | > 96.2 | > 100 | 0.142 | > 100 |
| CCCCCCCCCCCCCCCc1nc(SCC(=O)O)n[nH]1 | – | – | – | > 100 | – | > 100 | – | > 100 | – | 42.4 | – | > 100 | – | > 100 |
| NC(CSC(c1ccccc1)(c1ccccc1)c1ccc(Br)cc1)C(=O)O (stereo not given) | 0.17 | > 77.7 | 0.093 | 22.6 | 0.11 | 13.5 | 0.174 | 1.5 | 0.0318 | 0.146 | 7.44 | > 72.8 | 0.0469 | 5.71 |
| O=c1c(Br)ccc(Br)cc1Br | 1.85 | 3.95 | 0.532 | 2.89 | 1.92 | 4.52 | 3.07 | 8.6 | 1.48 | 2.91 | 1.91 | 3.49 | 1.51 | 2.88 |
| Nc1c2c(c(O)c3c1=C(CO)C=N3)=NCCS2=O (stereo not given) | 2.19 | 6.13 | 3.29 | 13.5 | 1.65 | 3.06 | 1.21 | 2.81 | 1.59 | 3.09 | 1.62 | 3.14 | 2.25 | 4.95 |
| COc1ccc(-n2cc(-c3ccc(F)cc3)[nH]c2=O)cc1OC | > 100 | > 100 | > 100 | > 100 | 82.2 | > 100 | > 100 | > 100 | > 100 | > 100 | > 100 | > 100 | > 100 | > 100 |
| Cc1cccc(C)c1NC(=O)/C(CC(=O)CC(c1ccccc1)c1c(O)c2ccccc2oc1=O)=N/O (stereo not given) | – | > 100 | – | – | – | > 100 | – | > 100 | – | > 100 | – | > 100 | – | > 100 |
| C=C(C=O)[C@@H]1CC=C(C=O)CC1 | 4.12 | 24.2 | 2.14 | 6.63 | 9.88 | 33.5 | 11.2 | 93.5 | – | – | 15 | 57.9 | – | – |
| CC(=O)O[C@H]1CC[C@@]2(C)[C@@H](CC[C@@H]3[C@@H]2CC(=O)[C@@]2(C)[C@H]3C[C@@H]3CC(C)=CC(=O)[C@@H]32)C1 | – | > 100 | – | 45.8 | – | – | – | > 100 | – | > 100 | – | > 100 | – | > 100 |
